Legend:
Bile salt export pump = biological target: T1, Bile salt export pump (Rattus norvegicus, UniProt O70127); experiment: (§1) TP_TRANSPORTER: Northern blot in vitro, primary hepatocytes; format: functional, cell-based, Hepatocyte
T1 sequence (O70127 whole entry): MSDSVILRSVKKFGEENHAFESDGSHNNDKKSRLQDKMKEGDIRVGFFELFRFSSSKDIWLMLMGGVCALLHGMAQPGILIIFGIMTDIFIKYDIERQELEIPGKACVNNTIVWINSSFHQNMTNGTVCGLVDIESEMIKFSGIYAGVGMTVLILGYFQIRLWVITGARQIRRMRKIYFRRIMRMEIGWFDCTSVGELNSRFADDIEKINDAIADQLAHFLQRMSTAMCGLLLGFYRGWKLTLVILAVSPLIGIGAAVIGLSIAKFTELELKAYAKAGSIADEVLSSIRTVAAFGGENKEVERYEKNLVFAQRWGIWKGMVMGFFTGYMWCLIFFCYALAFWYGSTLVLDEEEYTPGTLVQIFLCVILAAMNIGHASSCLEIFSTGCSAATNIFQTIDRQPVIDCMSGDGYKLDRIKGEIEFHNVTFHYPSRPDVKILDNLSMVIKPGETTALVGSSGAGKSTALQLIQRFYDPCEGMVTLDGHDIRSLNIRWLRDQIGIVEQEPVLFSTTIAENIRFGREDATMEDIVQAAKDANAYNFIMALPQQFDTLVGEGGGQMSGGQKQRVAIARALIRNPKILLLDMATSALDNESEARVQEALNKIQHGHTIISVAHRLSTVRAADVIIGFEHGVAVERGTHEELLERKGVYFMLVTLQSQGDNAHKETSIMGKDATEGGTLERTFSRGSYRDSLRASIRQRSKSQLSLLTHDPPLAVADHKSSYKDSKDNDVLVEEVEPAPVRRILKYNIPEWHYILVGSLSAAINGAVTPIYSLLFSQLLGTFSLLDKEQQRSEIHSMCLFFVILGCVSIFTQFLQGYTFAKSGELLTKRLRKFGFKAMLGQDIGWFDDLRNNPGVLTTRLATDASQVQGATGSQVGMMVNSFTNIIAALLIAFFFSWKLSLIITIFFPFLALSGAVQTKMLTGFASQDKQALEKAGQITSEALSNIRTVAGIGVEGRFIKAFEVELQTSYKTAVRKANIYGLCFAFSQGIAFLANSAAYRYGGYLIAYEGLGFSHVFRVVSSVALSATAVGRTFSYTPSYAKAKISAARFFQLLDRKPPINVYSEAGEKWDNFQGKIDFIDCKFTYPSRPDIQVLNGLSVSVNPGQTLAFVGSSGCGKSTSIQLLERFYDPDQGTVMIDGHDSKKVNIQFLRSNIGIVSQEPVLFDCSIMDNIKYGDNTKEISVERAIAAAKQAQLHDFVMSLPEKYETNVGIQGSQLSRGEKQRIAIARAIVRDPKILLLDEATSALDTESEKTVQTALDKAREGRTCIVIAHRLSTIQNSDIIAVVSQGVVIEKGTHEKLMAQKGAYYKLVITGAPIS

[1] = biological target: ATP-binding cassette sub-family C member 2 (Rattus norvegicus, UniProt Q63120); experiment: as §1; format: functional, cell-based, Hepatocyte
ATP-binding cassette sub-family C member 2 (Rattus norvegicus, UniProt Q63120), sequence (Q63120 whole entry): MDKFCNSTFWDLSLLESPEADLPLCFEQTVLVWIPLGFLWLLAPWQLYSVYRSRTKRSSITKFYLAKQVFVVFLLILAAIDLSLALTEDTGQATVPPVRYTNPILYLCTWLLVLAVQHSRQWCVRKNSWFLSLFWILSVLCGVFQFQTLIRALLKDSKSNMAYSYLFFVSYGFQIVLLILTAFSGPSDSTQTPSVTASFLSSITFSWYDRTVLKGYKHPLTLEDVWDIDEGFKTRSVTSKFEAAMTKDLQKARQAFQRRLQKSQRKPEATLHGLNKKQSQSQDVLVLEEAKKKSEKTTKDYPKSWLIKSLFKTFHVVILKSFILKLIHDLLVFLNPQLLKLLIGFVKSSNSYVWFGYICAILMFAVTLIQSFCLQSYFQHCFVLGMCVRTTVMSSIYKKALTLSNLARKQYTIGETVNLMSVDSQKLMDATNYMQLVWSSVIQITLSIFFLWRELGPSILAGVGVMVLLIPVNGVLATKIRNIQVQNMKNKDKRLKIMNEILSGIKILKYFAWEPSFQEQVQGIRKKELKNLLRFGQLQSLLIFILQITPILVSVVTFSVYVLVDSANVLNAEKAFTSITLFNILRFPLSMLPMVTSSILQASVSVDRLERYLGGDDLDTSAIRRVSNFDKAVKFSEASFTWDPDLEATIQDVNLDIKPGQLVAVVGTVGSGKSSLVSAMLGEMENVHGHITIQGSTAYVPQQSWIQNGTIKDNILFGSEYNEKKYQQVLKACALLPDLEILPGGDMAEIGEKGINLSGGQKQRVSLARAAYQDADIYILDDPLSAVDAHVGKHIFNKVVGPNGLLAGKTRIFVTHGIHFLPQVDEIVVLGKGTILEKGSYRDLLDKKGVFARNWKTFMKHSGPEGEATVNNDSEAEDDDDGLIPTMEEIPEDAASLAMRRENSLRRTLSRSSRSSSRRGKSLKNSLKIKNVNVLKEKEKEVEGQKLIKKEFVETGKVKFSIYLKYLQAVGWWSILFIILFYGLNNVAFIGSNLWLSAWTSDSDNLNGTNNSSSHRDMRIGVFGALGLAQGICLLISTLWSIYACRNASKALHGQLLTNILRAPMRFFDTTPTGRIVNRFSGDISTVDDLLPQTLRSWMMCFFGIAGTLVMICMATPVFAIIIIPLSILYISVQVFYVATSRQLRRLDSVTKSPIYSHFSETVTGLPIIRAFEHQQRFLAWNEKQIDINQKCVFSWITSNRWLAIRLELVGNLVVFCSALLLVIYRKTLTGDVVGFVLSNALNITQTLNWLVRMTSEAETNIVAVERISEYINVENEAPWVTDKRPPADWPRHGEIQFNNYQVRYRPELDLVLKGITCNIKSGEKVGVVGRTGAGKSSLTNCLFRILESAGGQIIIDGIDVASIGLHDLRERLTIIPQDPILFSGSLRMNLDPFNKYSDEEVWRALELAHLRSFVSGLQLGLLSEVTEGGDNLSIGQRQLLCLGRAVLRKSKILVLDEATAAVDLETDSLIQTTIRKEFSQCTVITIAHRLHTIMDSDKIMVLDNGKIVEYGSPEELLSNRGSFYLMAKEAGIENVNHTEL

[2] = biological target: T2, ATP-binding cassette sub-family C member 2 (Homo sapiens, UniProt Q92887); experiment: TP_TRANSPORTER: Northern blot from HepG2 cells; format: functional, cell-based
T2 sequence (Q92887 whole entry): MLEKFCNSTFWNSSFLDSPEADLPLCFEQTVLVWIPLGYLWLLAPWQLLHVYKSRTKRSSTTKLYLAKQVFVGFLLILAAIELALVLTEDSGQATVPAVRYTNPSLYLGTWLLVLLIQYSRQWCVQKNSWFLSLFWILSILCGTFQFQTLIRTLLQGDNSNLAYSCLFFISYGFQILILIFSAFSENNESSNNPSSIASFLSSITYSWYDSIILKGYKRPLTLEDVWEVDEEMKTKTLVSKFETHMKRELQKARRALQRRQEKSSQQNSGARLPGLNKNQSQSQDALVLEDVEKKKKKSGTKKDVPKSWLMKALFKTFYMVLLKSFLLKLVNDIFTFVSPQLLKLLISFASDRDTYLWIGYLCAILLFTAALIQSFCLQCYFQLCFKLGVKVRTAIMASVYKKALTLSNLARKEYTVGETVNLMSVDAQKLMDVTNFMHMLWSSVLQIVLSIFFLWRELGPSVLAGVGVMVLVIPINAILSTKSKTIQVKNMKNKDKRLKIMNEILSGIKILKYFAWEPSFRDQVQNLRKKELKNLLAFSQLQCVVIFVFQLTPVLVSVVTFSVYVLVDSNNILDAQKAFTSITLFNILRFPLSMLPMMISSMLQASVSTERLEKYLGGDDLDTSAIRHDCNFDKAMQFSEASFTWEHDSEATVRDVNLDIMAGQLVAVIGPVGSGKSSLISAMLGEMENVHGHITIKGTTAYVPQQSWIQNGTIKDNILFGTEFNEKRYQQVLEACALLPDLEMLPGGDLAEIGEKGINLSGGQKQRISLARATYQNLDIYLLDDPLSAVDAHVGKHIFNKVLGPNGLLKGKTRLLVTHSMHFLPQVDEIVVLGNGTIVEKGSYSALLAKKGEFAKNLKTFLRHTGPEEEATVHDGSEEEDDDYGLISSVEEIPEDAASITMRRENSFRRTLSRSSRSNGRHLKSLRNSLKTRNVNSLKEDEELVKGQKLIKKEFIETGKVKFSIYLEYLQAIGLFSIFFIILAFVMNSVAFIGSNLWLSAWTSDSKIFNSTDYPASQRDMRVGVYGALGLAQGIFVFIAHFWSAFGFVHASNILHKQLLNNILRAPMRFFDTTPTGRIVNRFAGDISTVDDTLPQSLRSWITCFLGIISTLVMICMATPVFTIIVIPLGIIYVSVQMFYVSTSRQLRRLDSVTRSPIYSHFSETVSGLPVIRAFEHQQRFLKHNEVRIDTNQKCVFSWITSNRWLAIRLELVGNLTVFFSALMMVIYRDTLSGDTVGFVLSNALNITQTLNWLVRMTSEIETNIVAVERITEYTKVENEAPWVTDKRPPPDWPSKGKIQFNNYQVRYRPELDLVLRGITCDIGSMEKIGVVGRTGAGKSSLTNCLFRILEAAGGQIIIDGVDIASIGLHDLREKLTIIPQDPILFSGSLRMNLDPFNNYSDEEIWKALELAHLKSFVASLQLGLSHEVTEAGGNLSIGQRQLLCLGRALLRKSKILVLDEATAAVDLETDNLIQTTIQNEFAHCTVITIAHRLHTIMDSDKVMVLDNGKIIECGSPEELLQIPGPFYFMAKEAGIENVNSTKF

[3] = biological target: ATP-binding cassette sub-family C member 2 (Mus musculus, UniProt Q8VI47); experiment: as §1; format: functional, cell-based, Hepatocyte
ATP-binding cassette sub-family C member 2 (Mus musculus, UniProt Q8VI47), sequence (Q8VI47 whole entry): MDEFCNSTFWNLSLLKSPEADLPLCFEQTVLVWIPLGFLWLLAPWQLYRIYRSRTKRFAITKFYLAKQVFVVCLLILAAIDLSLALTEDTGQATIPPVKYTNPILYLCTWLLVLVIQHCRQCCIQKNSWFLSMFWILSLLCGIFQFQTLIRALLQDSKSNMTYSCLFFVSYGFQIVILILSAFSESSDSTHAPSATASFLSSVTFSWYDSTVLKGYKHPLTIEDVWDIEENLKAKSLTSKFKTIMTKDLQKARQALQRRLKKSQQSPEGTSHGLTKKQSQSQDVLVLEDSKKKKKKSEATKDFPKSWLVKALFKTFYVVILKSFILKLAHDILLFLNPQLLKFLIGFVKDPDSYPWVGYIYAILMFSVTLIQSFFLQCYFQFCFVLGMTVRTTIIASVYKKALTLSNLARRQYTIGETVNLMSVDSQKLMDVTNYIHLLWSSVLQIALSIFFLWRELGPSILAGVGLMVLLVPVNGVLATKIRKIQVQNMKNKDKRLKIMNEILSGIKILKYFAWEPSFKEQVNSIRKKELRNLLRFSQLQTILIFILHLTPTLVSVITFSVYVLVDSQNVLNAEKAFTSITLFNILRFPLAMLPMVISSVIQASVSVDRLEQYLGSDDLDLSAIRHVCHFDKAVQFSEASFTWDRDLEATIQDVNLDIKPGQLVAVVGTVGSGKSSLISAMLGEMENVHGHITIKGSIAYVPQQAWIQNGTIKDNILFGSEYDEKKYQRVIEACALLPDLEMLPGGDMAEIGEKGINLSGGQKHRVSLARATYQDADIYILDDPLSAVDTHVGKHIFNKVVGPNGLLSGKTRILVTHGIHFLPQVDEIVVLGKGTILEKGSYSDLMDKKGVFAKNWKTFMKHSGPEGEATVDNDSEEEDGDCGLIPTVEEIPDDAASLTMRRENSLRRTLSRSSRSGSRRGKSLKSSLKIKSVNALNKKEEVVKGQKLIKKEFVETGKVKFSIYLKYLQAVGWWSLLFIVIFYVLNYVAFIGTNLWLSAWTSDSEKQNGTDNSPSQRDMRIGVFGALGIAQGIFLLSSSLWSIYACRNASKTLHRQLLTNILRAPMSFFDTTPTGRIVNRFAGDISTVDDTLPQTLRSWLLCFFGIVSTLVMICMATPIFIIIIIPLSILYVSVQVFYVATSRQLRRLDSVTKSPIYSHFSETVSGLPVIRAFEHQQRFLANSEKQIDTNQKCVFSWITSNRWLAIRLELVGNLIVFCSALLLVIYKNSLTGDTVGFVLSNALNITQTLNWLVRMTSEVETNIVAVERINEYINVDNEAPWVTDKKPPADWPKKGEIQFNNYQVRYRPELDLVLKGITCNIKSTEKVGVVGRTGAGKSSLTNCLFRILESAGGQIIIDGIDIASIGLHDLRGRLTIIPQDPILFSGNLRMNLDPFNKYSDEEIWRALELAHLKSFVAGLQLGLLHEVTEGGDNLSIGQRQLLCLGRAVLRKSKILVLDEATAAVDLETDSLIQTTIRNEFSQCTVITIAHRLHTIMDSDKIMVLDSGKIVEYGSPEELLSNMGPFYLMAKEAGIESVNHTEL

[4] = biological target: T2, ATP-binding cassette sub-family C member 2; experiment: as §1; format: functional, cell-based, Hepatocyte

SMILES | Activity (Bile salt export pump) | Activity [1] | Activity [2] | Activity [3] | Activity [4]
CC(C)c1onc(-c2c(Cl)cccc2Cl)c1COc1ccc(/C=C/c2cccc(C(=O)O)c2)c(Cl)c1 | inducer [+] | inducer [+] | inducer [+] |  | 
CCC1(c2ccccc2)C(=O)NC(=O)NC1=O [PHENOBARBITAL] | inducer [+] |  |  | inducer [+] | 
C[C@H](CCC(=O)O)[C@H]1CC[C@H]2[C@@H]3[C@H](O)C[C@@H]4C[C@H](O)CC[C@]4(C)[C@H]3CC[C@]12C [CHENODIOL] |  |  | inducer [+] |  | 
CC(=O)[C@H]1[C@H](C#N)C[C@H]2[C@@H]3CC=C4C[C@@H](O)CC[C@]4(C)[C@H]3CC[C@@]21C [PREGNENOLONE CARBONITRILE] | inducer [+] | inducer [+] |  | inducer [+] | 
CC(C)=CCC[C@]1(C)[C@@H](CC=C(C)C)C[C@]2(CC=C(C)C)C(=O)C(CC=C(C)C)=C(O)[C@@]1(C(=O)C(C)C)C2=O |  |  |  |  | inducer [+]

— ChEMBL document CHEMBL2074404, “Regulation of multidrug resistance-associated protein 2 (ABCC2) by the nuclear receptors pregnane X receptor, farnesoid X-activated receptor, and constitutive androstane receptor” (J Biol Chem, 2002)
